Experimental data: US20210299156A1 (priority 2020, published 2021)
pEC50: −log10 of the molar value. Like-named read-outs stand apart in the source and are kept apart here.

Legend:
SARS-CoV-2 [1] = system: SARS-CoV-2; design: species or system K18-hACE2 mice; conditions: mouse, in vivo
[2] = biological target: plasma membrane nucleolin (Homo sapiens, UniProt P19338); design: key: 1: Indicates a good plasma membrane nucleolin-binding GRO.; 2: Indicates a nucleolin control (non-plasma membrane nucleolin binding); conditions: cited from earlier work
plasma membrane nucleolin, sequence (P19338 whole entry): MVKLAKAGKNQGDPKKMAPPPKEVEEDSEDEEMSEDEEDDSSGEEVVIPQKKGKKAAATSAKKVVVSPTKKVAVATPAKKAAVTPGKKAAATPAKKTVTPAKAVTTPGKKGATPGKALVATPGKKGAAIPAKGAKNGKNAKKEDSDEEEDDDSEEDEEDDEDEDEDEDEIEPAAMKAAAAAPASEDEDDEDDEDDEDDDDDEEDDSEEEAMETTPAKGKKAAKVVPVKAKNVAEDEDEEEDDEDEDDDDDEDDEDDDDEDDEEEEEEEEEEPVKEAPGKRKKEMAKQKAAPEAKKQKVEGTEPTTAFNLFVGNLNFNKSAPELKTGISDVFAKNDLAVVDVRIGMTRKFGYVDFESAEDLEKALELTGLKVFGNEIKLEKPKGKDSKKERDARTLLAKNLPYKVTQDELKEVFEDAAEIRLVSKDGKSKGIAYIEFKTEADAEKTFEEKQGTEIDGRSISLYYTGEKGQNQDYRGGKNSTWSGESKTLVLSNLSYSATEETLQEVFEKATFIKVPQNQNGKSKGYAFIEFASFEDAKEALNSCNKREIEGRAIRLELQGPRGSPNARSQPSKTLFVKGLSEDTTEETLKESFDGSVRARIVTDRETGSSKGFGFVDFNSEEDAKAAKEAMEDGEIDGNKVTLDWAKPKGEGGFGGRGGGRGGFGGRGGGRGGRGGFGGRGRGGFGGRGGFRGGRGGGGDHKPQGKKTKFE

SARS-CoV-2 [3] = type: in vivo, K18-hACE2 mice; conditions: 12 mg/kg per day intraperitoneal osmotic pump; 7 days after virus challenge
SARS-CoV-2 [4] = conditions: VERO E6 cells
SARS-CoV-2 [5] = type: cell-based; conditions: MOI 0.1
SARS-CoV-2 [6] = type: cell-based; conditions: EPIAIRWAY tissue pretreated with 2.5, 25, 250 μM; MOI 0.1
SARS-CoV-2 [7] = type: cell-based; conditions: EPINASAL tissue pretreated with 2.5, 25, 250 μM; MOI 0.1
SARS-CoV-2 [8] = type: cell-based; conditions: for pEC50: MOI 0.1
[9] = PEP: drug 4 hours after virus challenge
[10] = PrEP: drug 4 hours before virus challenge

In the case of “AS1411: GRO nucleolin-binding DNA aptamer, SEQ ID NO:10, ggtggtggtg gttgtggtgg tggtgg”, the “inhibiting the virus (TCID50/ml)” value (SARS-CoV-2 [1]) was “effective for inhibiting the virus in the nasal passage and kidneys of the mice, although not as effectively as in the lungs”, the “inhibiting the virus in the brain (TCID50/ml)” value (SARS-CoV-2 [1]) was “not effective for inhibiting the virus in the brain” and the “inhibiting the virus in the lungs (TCID50/ml)” value (SARS-CoV-2 [1]) was “effective for inhibiting the virus in the lungs”. The “plasma membrane nucleolin binding (footnote designation)” value [2] was “GRO26B^1”, the survival rate (SARS-CoV-2 [3]) was 100% and the “concentration at which inhibition of SARS-CoV-2 virus-induced syncytium formation begins” value (SARS-CoV-2 [4]; MOI 0.01, 72 hours) was ≥ 0.625 µM. The “dose at which cytopathic effects of SARS-CoV-2 are markedly reduced” value (SARS-CoV-2 [4]; MOI 0.01, 72 hours) was ≥ 0.625 µM, the cytotoxicity (SARS-CoV-2 [4]; from 0.625 μM) was “without cytotoxicity” and the pEC50 (SARS-CoV-2 [5]; [9]) was 5.83. The EC90 (SARS-CoV-2 [5]; [9]) was 3200 nM, the pEC50 (SARS-CoV-2 [5]; [10]) was 6.01 and the EC90 (SARS-CoV-2 [5]; [10]) was 2160 nM. For the same substance, the “toxicity in EPIAIRWAY model” value (EPIAIRWAY™ tissue) was “not toxic”, the “reduction in viral titer” value (SARS-CoV-2 [6]) was ≤ 5 logs fold and the “reduction in viral titer” value (SARS-CoV-2 [7]) was ≤ 3.5 logs fold. For the same substance, the “protective effect compared to the vehicle group” value (SARS-CoV-2 [8]; 2.5 μM and 20 μM, EPIAIRWAY tissue, FIG. 29) was “reduction of virus”, the pEC50 (SARS-CoV-2 [8]; 72 Hours Post-Infection, EPIAIRWAY tissue) was 6.03 and the pEC50 (SARS-CoV-2 [8]; 96 Hours Post-Infection, EPIAIRWAY tissue) was 5.85. The pEC50 (SARS-CoV-2 [8]; 120 Hours Post-Infection, EPIAIRWAY tissue) was 6.19, the “interference between AS1411 and remdesivir in combination” value (SARS-CoV-2 [8]; EPIAIRWAY tissue TCID50/ml, FIG. 27) was “do not interfere with each other” and the “interference between AS1411 and dexamethasone in combination” value (SARS-CoV-2 [8]; EPIAIRWAY tissue TCID50/ml, FIG. 28) was “do not interfere with each other”.
